Structures can show the parent of a compound that is named as a salt. Where two headings read alike, the source gives them in different places.
Legend:
MCL-1 = MCL-1 (Homo sapiens, UniProt Q07820); experiment: Protein-protein interaction assay MCL-1/Noxa BH3 peptide (MCL-1 assay), TR-FRET; assay type: binding; conditions: MBP-MCL-1 / Noxa BH3-derived peptide, median
How it was run: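 MBP-MCL-1 (1 nM final) was preincubated 10 min at 22 °C with compounds (11 concentrations, 0.1 nM–20 μM, duplicates) in Tris pH 7 buffer with NaCl, KF, Tween-20, DTT and BGG. After 1 h at 22 °C in the dark plus overnight at 4 °C, anti-MBP Eu-cryptate/streptavidin-XL665 TR-FRET was read; IC50 came from a 4-parameter fit.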

SUDHL10 [1] = experiment: Induction of caspase-3/7 activity (Caspase-Glo 3/7), SUDHL10; assay type: cell-based; conditions: caspase-3/7 induction, SUDHL10 cells, 3 h treatment, median
How it was run: (§1)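 Caspase-Glo 3/7 luminescence measured after 3 h compound exposure at 37 °C in SUDHL10 and SUDHL5 cells. EC50 values come from background-corrected signals, with curve bottom set to 1 and plateau set to maximal induction by the reference compound.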

SUDHL5 [2] = experiment: Induction of cytotoxicity (CellTiter-Glo, 5 h), SUDHL5
A2780 = experiment: Anti-proliferative effect (CellTiter-Glo, 72 h), A2780; assay type: cell-based; conditions: A2780 cells, median, read-out: IC50 antiproliferation assay A2780 [M] (median)
How it was run: (§2)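 Anti-proliferative activity is derived from ATP-based luminescence (CellTiter-Glo) in cells exposed to compound for 72 h at 37 °C, set against a time zero plate read at seeding.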

SUDHL5 [3] = experiment: Anti-proliferative effect (CellTiter-Glo, 72 h), SUDHL5; assay type: cell-based; conditions: SUDHL5 cells, antiproliferation, 72 h incubation, median, read-out: Antiproli SUDHL5 [M] (median)
How it was run: as §2

SUDHL10 [4] = experiment: Induction of cytotoxicity (CellTiter-Glo, 5 h), SUDHL10
SUDHL10 [5] = experiment: Anti-proliferative effect (CellTiter-Glo, 72 h), SUDHL10; assay type: cell-based; conditions: SUDHL10 cells, antiproliferation, 72 h incubation, median, read-out: Antiproli SUDHL10 [M] (median)
How it was run: as §2

SUDHL5 [6] = experiment: Induction of caspase-3/7 activity (Caspase-Glo 3/7), SUDHL5; assay type: cell-based; conditions: caspase-3/7 induction, SUDHL5 cells, 3 h treatment, median
How it was run: as §1

[7] = read-out: Cytotox SUDHL5 [M] (median), SUDHL5 cells, cytotoxicity induction, CellTiter-Glo, 5 h incubation, median
[8] = read-out: Cytotox SUDHL10 [M] (median), SUDHL10 cells, cytotoxicity induction, CellTiter-Glo, 5 h incubation, median

Sequence of MCL-1 (Q07820 whole entry): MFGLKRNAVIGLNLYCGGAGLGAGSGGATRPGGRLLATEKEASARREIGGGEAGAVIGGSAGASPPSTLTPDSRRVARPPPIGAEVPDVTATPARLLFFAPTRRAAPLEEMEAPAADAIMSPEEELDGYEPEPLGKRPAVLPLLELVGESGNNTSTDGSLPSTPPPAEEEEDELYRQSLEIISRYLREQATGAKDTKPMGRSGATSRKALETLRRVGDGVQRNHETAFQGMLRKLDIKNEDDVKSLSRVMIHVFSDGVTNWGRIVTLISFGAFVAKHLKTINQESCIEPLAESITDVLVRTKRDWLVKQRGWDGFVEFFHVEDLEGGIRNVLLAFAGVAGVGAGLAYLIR

SMILES	IC50 (MCL-1) [µM]	EC50 (SUDHL10 [1]; Homo sapiens, SU-DHL10, 3 h) [µM]	IC50 (A2780) [M]	IC50 (A2780; Homo sapiens, A2780, 72 h) [M]	IC50 (SUDHL5 [3]; Homo sapiens, SU-DHL-5, 72 h) [M]	IC50 (SUDHL10 [5]; Homo sapiens, SU-DHL10, 72 h) [M]	EC50 (SUDHL5 [6]) [µM]	EC50 (SUDHL5 [6]; Homo sapiens, SU-DHL-5, 3 h) [µM]	EC50 (SUDHL10 [1]) [µM]	IC50 (SUDHL5 [3]) [M]	IC50 (SUDHL10 [5]) [M]	IC50 (SUDHL5 [2]; [7]) [M]	IC50 (SUDHL10 [4]; [8]) [M]	IC50 (SUDHL5 [2]; Homo sapiens, SU-DHL-5, 5 h, read-out: Cytotox SUDHL5 [M] (median), SUDHL5 cells, cytotoxicity induction, CellTiter-Glo, 5 h incubation, median)	IC50 (SUDHL10 [4]; Homo sapiens, SU-DHL10, 5 h, read-out: Cytotox SUDHL10 [M] (median), SUDHL10 cells, cytotoxicity induction, CellTiter-Glo, 5 h incubation, median)
Cc1ccc2c(CCCOc3cccc4ccccc34)c(C(=O)O)n3c2c1-c1c(C)nn(C)c1COCCCC3 (single isomer, unassigned; enantiomer 1) [Example 028, 1,3,4-trimethyl-7-[3-(naphthalen-1-yloxy)propyl]-1,10,11,12,13,15-hexahydropyrazolo[4′,3′:9,10][1,6]oxazacycloundecino[8,7,6-hi]indole-8-carboxylic acid-N-ethylethanamine Salt (Enantiomer 1)]	0.234	> 33		1.94e-05	2.97e-05	1.81e-05		> 33						> 3.3e-05	> 3.3e-05
Cc1cc2c(OCCCc3c(C(=O)O)n4c5c(cccc35)-c3c(C)nn(C)c3COCCCC4)cccc2cc1F (single isomer, unassigned; enantiomer 1) [Example 050, 7-{3-[(6-fluoro-7-methylnaphthalen-1-yl)oxy]propyl}-1,3-dimethyl-1,10,11,12,13,15-hexahydropyrazolo[4′,3′:9,10][1,6]oxazacycloundecino[8,7,6-hi]indole-8-carboxylic acid-N-ethylethanamine Salt (Enantiomer 1)]	0.00882	18.8		3.01e-05	1.41e-05	7.75e-06	6.3					4.45e-06	9.61e-06		
COCc1c2c(nn1C)COCCCCn1c(C(=O)O)c(CCCOc3cccc4ccccc34)c3cccc-2c31 (single isomer, unassigned; enantiomer 1) [Example 100, 3-(methoxymethyl)-2-methyl-7-[3-(naphthalen-1-yloxy)propyl]-2,10,11,12,13,15-hexahydropyrazolo[4′,3′:9,10][1,6]oxazacycloundecino[8,7,6-hi]indole-8-carboxylic acid-N-ethylethanamine Salt (Enantiomer 1)]	0.0424			> 3.3e-05			> 33		> 33	1.61e-05	1.71e-05	> 3.3e-05	> 3.3e-05		

The next molecules have a lower IC50 (MCL-1) than those just listed; values first:

IC50 (MCL-1) [µM]	EC50 (SUDHL10 [1]; Homo sapiens, SU-DHL10, 3 h) [µM]	IC50 (A2780) [M]	IC50 (A2780; Homo sapiens, A2780, 72 h) [M]	IC50 (SUDHL5 [3]; Homo sapiens, SU-DHL-5, 72 h) [M]	IC50 (SUDHL10 [5]; Homo sapiens, SU-DHL10, 72 h) [M]	EC50 (SUDHL5 [6]) [µM]	EC50 (SUDHL5 [6]; Homo sapiens, SU-DHL-5, 3 h) [µM]	EC50 (SUDHL10 [1]) [µM]	IC50 (SUDHL5 [3]) [M]	IC50 (SUDHL10 [5]) [M]	SMILES	IC50 (SUDHL5 [2]; [7]) [M]	IC50 (SUDHL10 [4]; [8]) [M]	IC50 (SUDHL5 [2]; Homo sapiens, SU-DHL-5, 5 h, read-out: Cytotox SUDHL5 [M] (median), SUDHL5 cells, cytotoxicity induction, CellTiter-Glo, 5 h incubation, median)	IC50 (SUDHL10 [4]; Homo sapiens, SU-DHL10, 5 h, read-out: Cytotox SUDHL10 [M] (median), SUDHL10 cells, cytotoxicity induction, CellTiter-Glo, 5 h incubation, median)
0.00523			2.25e-05	8.25e-06	1.89e-05	4.73		12.5			CCc1c2c(nn1C)CN(C)CCCn1c(C(=O)O)c(CCCOc3cccc4ccccc34)c3cccc-2c31 (single isomer, unassigned; enantiomer 1) [Example 142, 11-Ethyl-7,10-dimethyl-1-[3-(1-naphthyloxy)propyl]-4,5,6,7,8,10-hexahydropyrazolo[3′,4′:7,8][1,5]diazecino[9,10,1-hi]indole-2-carboxylic acid-N-ethylethanamine Salt (Enantiomer 1)]	6.07e-06	1.34e-05		
0.00298		2.72e-05	> 3.3e-05		7.52e-06	2.66		8.71	4.28e-06		COCCn1nc(C2CC2)c2c1COCCCCn1c(C(=O)O)c(CCCOc3cccc4ccccc34)c3cccc-2c31 (single isomer, unassigned; enantiomer 1) [Example 103, 3-cyclopropyl-1-(2-methoxyethyl)-7-[3-(naphthalen-1-yloxy)propyl]-1,10,11,12,13,15-hexahydropyrazolo[4′,3′:9,10][1,6]oxazacycloundecino[8,7,6-hi]indole-8-carboxylic acid-N-ethylethanamine Salt (Enantiomer 1)]	3.55e-06	8.83e-06		
0.00184	11.1	> 3.3e-05	3.04e-05	6.44e-06	4.29e-06	3.04					Cc1ccc2c(CCCOc3cccc4ccccc34)c(C(=O)O)n3c2c1-c1c(C)nn(C)c1COCCC3 (single isomer, unassigned; enantiomer 1) [Example 025, (+)-9,11,12-trimethyl-1-[3-(naphthalen-1-yloxy)propyl]-5,6,8,9-tetrahydro-4H-pyrazolo[4′,3′:8,9][1,5]oxazecino[7,6,5-hi]indole-2-carboxylic acid-N-ethylethanamine Salt (Enantiomer 1)]	2.98e-06	8.77e-06		

Reference: patent US10981932B2, “Macrocyclic indole derivatives” (Bayer Aktiengesellschaft, priority 2016, dated 2021)
